In one assay the test system is MIA-PACA2 pancreatic cancer cell lines. The experiment in a line: Cell proliferation assay (CellTiter 96 AQueous One). The conditions noted are these: Homo sapiens, MIA PaCa-2; MIA-PACA2, same assay as the % inhibition (standard conditions). Format: cell-based. The procedure: Cell lines: Tumor-derived pancreatic cancer cell lines MIA-PACA2 were purchased from ATCC and grown in complete DMEM-High Glucose medium supplemented with penicillin (100 U/mL), streptomycin (100 μg/mL), and 10% heat-inactivated FBS at 37° C. in a humidified incubator with 5% CO2.
Method: Cells are plated at 1000 cells/well density in 96-wells plate, starved ON, and the next day tested small molecules are added to the cells in the final concentration of 30 μM with 0.3% DMSO 3 hours prior to 10% FBS addition. After serum addition cells are incubated for 6 days at 37° C. in a humidified incubator with 5% CO2. For IC50 value determination, serial dilutions of compounds were added to cells under the same conditions.
Assay: At the end of the incubation period, cell cultures are tested using the CellTiter 96® AQueous One Solution Cell Proliferation Assay kit (Promega Corporation, Madison, Wis.) according to the manufacturer specifications. Briefly, assay is performed by adding 20 μl of the CellTiter 96 Aqueous One Solution Reagent directly to culture wells, followed by for 1-4 hours incubation at 37° C. in a humidified incubator with 5% CO2. At the end of incubation time, absorbance at 492 nm is recorded with the 96-well plate reader Eppendorf AF2200, and degree of small molecule-dependent proliferation inhibition is calculated from raw data assuming No Serum cells value as 100%.
What is called IC50 is the point on the concentration scale where inhibition reaches its midpoint. `O=C(CN1CCN(c2nc(-c3ccccn3)nc3sc(-c4ccccc4)cc23)CC1)N1CCCC1` [drawing 1606] came in with a half-inhibitory concentration (IC50) above 1000 nM.
Turning to `Oc1nc(-c2ccccn2)nc2c(-c3cc(Cl)cc(Cl)c3)csc12` [drawing 1724], the IC50 was 100 to 500 nM.

Staying with this assay, now noted: Homo sapiens, MIA PaCa-2; at 30 μM, MIA-PACA2.
As usually defined, the inhibition is the relative decrease from the control value, in per cent. The compound `O=C(c1csc2c(O)nc(-c3ccccn3)nc12)N1CCN(c2cccc(F)c2)CC1` [drawing 1647] returned an inhibition at 30 µM of 76 to 100%.
Still for that read-out and setting: the figure for `O=C(c1csc2c(O)nc(-c3ccccn3)nc12)N1CCNC(c2ccc(F)cc2)C1` (stereo not drawn) [drawing 1700] is 76 to 100%; for `Cn1cc(-c2nc(C(=O)Nc3nnc(-c4ccccn4)[nH]3)cs2)cn1` [drawing 1403] it is 76 to 100%.
`O=S1(=O)CCC(N2CCN(c3nc(-c4ccccn4)nc4scc(-c5ccccc5)c34)CC2)C1` (stereo not drawn) [drawing 1608]: the inhibition at 30 µM fell in the range of 76 to 100%.
`O=C(COc1ccccc1)Nc1nnc(-c2ccccn2)[nH]1` [drawing 1456] gave an inhibition at 30 µM of 25 to 50%.
On to `Cc1c(C(=O)Nc2nnc(-c3ccccn3)[nH]2)oc2ccccc12` [drawing 1395], for which the inhibition at 30 µM was in the range of 76 to 100%.
`CCN(CC)C(=O)CN1CCN(c2nc(-c3ccccn3)nc3scc(-c4ccccc4)c23)CC1` [drawing 1613] registered an inhibition at 30 µM of 76 to 100%.
Still for that read-out and setting: for `CS(=O)(=O)N1CCCc2cc(C(=O)N3CCCc4c(O)nc(-c5ccccn5)nc43)ccc21` [drawing 1547] the value was 76 to 100%.
Consider `Cc1sc2c(O)nc(-c3ccccn3)nc2c1-c1ccccc1` [drawing 1781], for which the inhibition at 30 µM is 76 to 100%.
With `CN(CC(=O)N1CCOCC1)c1nc(-c2ccccn2)nc2scc(-c3ccccc3)c12` [drawing 1609], the inhibition at 30 µM lay within 51 to 75%.
The compound `CCOc1cc(C(=O)Oc2c(C)ccc(C)c2C)cc(OCC)c1OCC` [drawing 1527] gave an inhibition at 30 µM of 76 to 100%.
Still for that read-out and setting: the figure for `O=C(c1csc2c(O)nc(-c3ccccn3)nc12)N1CCNC(c2ccccc2F)C1` (stereo not drawn) [drawing 1669] is 76 to 100%; for `CCC(C)c1csc2c(OC)nc(-c3ccccn3)nc12` (stereo not drawn) [drawing 1794] it is 76 to 100%.
Still for that read-out and setting: for `O=C(C1CCN(c2nc(-c3ccccn3)nc3scc(-c4ccccc4)c23)CC1)N1CCCCC1` [drawing 1622] the value was 76 to 100%; for `Cc1ccc(CC(=O)Nc2nnc(-c3ccccn3)[nH]2)cc1` [drawing 1402], 25 to 50%.
Same read-out and setting: the figure for `O=C(c1csc2c(O)nc(-c3ccccn3)nc12)N1CCOC(c2cccc(F)c2)C1` (stereo not drawn) [drawing 1635] is 76 to 100%; for `COc1ccc(CCN(C)C(=O)c2csc3nc(-c4ccccn4)nc(N4CCOCC4)c23)cn1` [drawing 1640] it is 76 to 100%; for `CNC(=O)c1ccc(-c2csc3c(O)nc(-c4ccccn4)nc23)cc1C` [drawing 1761] it is 76 to 100%.
As for `Oc1nc(-c2ccccn2)nc2c(-c3cncc(C(F)(F)F)c3)csc12` [drawing 1788], the inhibition at 30 µM was in the range of 76 to 100%.
Same read-out and setting: for `O=C(CCc1nn[nH]n1)Nc1nc(-c2ccccn2)nc2sccc12` [drawing 1766] the value was 51 to 75%; for `Cc1nc(-c2ccccn2)nc(O)c1CCC(=O)NC1CCc2ccccc21` (stereo not drawn) [drawing 1504], 76 to 100%.
The same measure, in the same setting: for `COc1ccc(CCC(=O)N2CCCc3c(O)nc(-c4ccccn4)nc32)cc1` [drawing 1545] the value was 76 to 100%.
Still for that read-out and setting: the figure for `Cc1c(C(=O)Nc2nnc(-c3ccccn3)[nH]2)oc2c1C(=O)CCC2` [drawing 1404] is 76 to 100%; for `CON(C)c1nc(-c2ccccn2)nc2scc(-c3ccccc3)c12` [drawing 1610] it is 76 to 100%; for `CC(C(=O)Nc1ccnc(-c2ccccn2)n1)c1ccc(C#N)cc1` (stereo not drawn) [drawing 1687] it is 76 to 100%.
Take `CCN(CC)S(=O)(=O)c1cc(C)c(C)c(NC(=O)CCc2c(C)nc(-c3ccccn3)nc2O)c1` [drawing 1508]: the inhibition at 30 µM was 76 to 100%.
With `O=c1nc(-c2ccccn2)[nH]c2c1CCC2` [drawing 1498], the inhibition at 30 µM lay in the range of 1 to 25%.
On the same count and under the same terms, for `CN(Cc1nnc(-c2ccccc2Cl)o1)Cc1ccccc1C(F)(F)F` [drawing 1406] the value was 25 to 50%; for `O=C(c1csc2c(O)nc(-c3ccccn3)nc12)N1CCN(c2ccc(F)cc2)CC1` [drawing 1648], 76 to 100%.
The same measure, in the same setting: the figure for `NC(=O)c1ccc(OCC(=O)Nc2nnc(-c3ccccn3)[nH]2)cc1` [drawing 1450] is 1 to 25%.
Same read-out and setting: for `CCc1cc(NNC(=O)c2ccc(C#N)cc2)nc(-c2ccccn2)n1` [drawing 1511] the value was 76 to 100%.
`COc1cccc(CC2CN(C(=O)c3csc4c(O)nc(-c5ccccn5)nc34)CCN2)c1` (stereo not drawn) [drawing 1706]: the inhibition at 30 µM was in the range of 1 to 25%.
The same measure, in the same setting: for `O=C(c1csc2c(O)nc(-c3ccccn3)nc12)N1CCOC(c2ccccc2)C1` (stereo not drawn) [drawing 1659] the value was 76 to 100%; for `CC(Oc1cccc(C#N)c1)C(=O)Nc1nnc(-c2ccccn2)[nH]1` (stereo not drawn) [drawing 1424], 76 to 100%; for `COCCNc1nc(-c2ccccn2)nc2scc(-c3ccccc3)c12` [drawing 1625], 76 to 100%.
On the same count and under the same terms, for `COc1ccc(CCC(=O)Nc2nnc(-c3ccccn3)[nH]2)cc1` [drawing 1398] the value was 51 to 75%; for `COc1ccnc(-c2nc(O)c3c(C(F)(F)F)csc3n2)c1` [drawing 1709], 76 to 100%; for `O=S(=O)(CCc1ccccc1)N1CCCc2c(O)nc(-c3ccccn3)nc21` [drawing 1552], 1 to 25%.
On the same count and under the same terms, the figure for `Cc1sc2nc(-c3ccccn3)nc(NCCCO)c2c1-c1ccccc1` [drawing 1516] is 76 to 100%; for `O=C(OCCc1ccccc1)N1CCCc2c(O)nc(-c3ccccn3)nc21` [drawing 1554] it is 76 to 100%.
The compound `O=C(NCCc1cncs1)c1csc2nc(-c3ccccn3)nc(N3CCOCC3)c12` [drawing 1643] gave an inhibition at 30 µM of 76 to 100%.
Still for that read-out and setting: for `Cc1ccc(OC2CCCC2)c(-c2csc3c(O)nc(-c4ccccn4)nc23)c1` [drawing 1720] the value was 76 to 100%; for `O=C(CCc1cnn(-c2ccccc2)c1)Nc1nnc(-c2ccccn2)[nH]1` [drawing 1383], 76 to 100%.
The same measure, in the same setting: for `O=C(c1csc2c(O)nc(-c3ccccn3)nc12)N(CCO)CCOCCO` [drawing 1576] the value was 1 to 25%; for `O=C(CN1CCN(c2nc(-c3ccccn3)nc3sc(-c4ccccc4)cc23)CC1)N1CCCC1` [drawing 1606], 76 to 100%.
On the same count and under the same terms, the figure for `Cn1cc(C2CN(C(=O)c3csc4c(O)nc(-c5ccccn5)nc34)CCN2)cn1` (stereo not drawn) [drawing 1670] is 1 to 25%; for `COc1ccncc1CCNC(=O)c1csc2nc(-c3ccccn3)nc(N3CCOCC3)c12` [drawing 1673] it is 76 to 100%; for `CC1CCN(C(=O)c2csc3c(O)nc(N)nc23)CC1` [drawing 1558] it is 1 to 25%.
Take `COc1ccccc1-c1cc(C(=O)Nc2nnc(-c3ccccn3)[nH]2)no1` [drawing 1451]: the inhibition at 30 µM lay within 76 to 100%.
Still for that read-out and setting: for `Cn1nnc2ccc(-c3csc4c(O)nc(-c5ccccn5)nc34)cc21` [drawing 1737] the value was 76 to 100%; for `Cc1noc(C)c1CC(=O)Nc1nnc(-c2ccccn2)[nH]1` [drawing 1411], 25 to 50%; for `O=C(c1csc2c(O)nc(-c3ccccn3)nc12)N1CCNC(Cc2ccccc2)C1` (stereo not drawn) [drawing 1671], 76 to 100%.
The same measure, in the same setting: for `Oc1nc(-c2ccccn2)nc2c(-c3ccc(OC(F)F)cc3F)csc12` [drawing 1752] the value was 76 to 100%; for `O=C(COc1ccc(F)cc1F)Nc1nnc(-c2ccccn2)[nH]1` [drawing 1388], 51 to 75%.
On the same count and under the same terms, for `COC(=O)C(C)CN(Cc1cc(Br)ccc1[N+](=O)[O-])C1CC1` (stereo not drawn) [drawing 1534] the value was 1 to 25%.
As for `O=C(c1csc2c(O)nc(-c3ccccn3)nc12)N1CCOC(c2nccs2)C1` (stereo not drawn) [drawing 1636], the inhibition at 30 µM fell in the range of 76 to 100%.
On the same count and under the same terms, for `CC1CCN(C(=O)c2csc3c(O)nc(-c4ccccn4)nc23)CC1` [drawing 1563] the value was 76 to 100%; for `Nc1nc(-c2ccccn2)nc2c(-c3ccccc3)csc12` [drawing 1735], 76 to 100%.
For the compound `COC(=O)C(C)CN(Cc1ccccc1)c1nc(C(F)(F)F)ccc1C#N` (stereo not drawn) [drawing 1536], the inhibition at 30 µM is 51 to 75%.
`CNC(=O)c1sc2[nH]c(-c3ccccn3)nc(=O)c2c1C` [drawing 1491] yielded an inhibition at 30 µM of 51 to 75%.
The same measure, in the same setting: for `CC1(N)CCN(C(=O)c2csc3c(O)nc(-c4ccccn4)nc23)CC1` [drawing 1573] the value was 1 to 25%; for `COC(=O)c1ccc(C(=O)NCC2(c3ccccc3OC)CCCC2)nc1` [drawing 1528], 76 to 100%; for `O=C(Nc1nnc(-c2ccccn2)[nH]1)c1ccn(-c2cccc(Cl)c2)n1` [drawing 1468], 76 to 100%.
Same read-out and setting: the figure for `O=C(c1csc2c(O)nc(-c3ccccn3)nc12)N1CCOC(c2ccccc2Cl)C1` (stereo not drawn) [drawing 1662] is 76 to 100%.
Same read-out and setting: the figure for `COCCCCNC(=O)c1csc2nc(-c3ccccn3)nc(N(CCOC)CCOC)c12` [drawing 1686] is 76 to 100%.
In turn, `Oc1nc(-c2ccccn2)nc2c(-c3cc(Cl)cc(Cl)c3)csc12` [drawing 1724] returned an inhibition at 30 µM of 76 to 100%.
On the same count and under the same terms, the figure for `Nc1nc(O)c2nc[nH]c2n1` [drawing 1629] is 1 to 25%.

These data come from patent publication US10940139B2, “Compounds that interact with the Ras superfamily for the treatment of cancers, inflammatory diseases, rasopathies, and fibrotic disease” (Shy Therapeutics LLC, priority 2017, dated 2021).
